#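 Where inhibition never reached the appropriate level, the endpoint shown equals the highest concentration tested. Otherwise, values were interpolated linearly from a five-concentration, 48-hour dose response in 96-well plates. GI50 marks 50% less growth. The concentration for full growth arrest is given as TGI.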
# Tests used:
# Experiment in all cases: DTP human tumour cell line panel, 48 h
# [1] = tested on: HCT-116 colon
# [2] = tested on: LOX IMVI melanoma
# [3] = tested on: COLO 205 colon
# [4] = tested on: PC-3 prostate
# [5] = tested on: MOLT-4 leukemia
# [6] = tested on: M14 melanoma
# [7] = tested on: RXF 393 renal
# [8] = tested on: HOP-92 NSCLC
# [9] = tested on: SR leukemia
# [10] = tested on: SW-620 colon
# [11] = tested on: EKVX NSCLC
# [12] = tested on: UACC-257 melanoma
# [13] = tested on: SN12C renal
# [14] = tested on: HCC-2998 colon
# [15] = tested on: OVCAR-5 ovarian
# [16] = tested on: NCI/ADR-RES ovarian
# [17] = tested on: NCI-H522 lung
# [18] = tested on: OVCAR-4 ovarian
# [19] = tested on: 786-0 renal
# [20] = tested on: NCI-H460 lung
# [21] = tested on: SF-539 CNS
# [22] = tested on: MDA-MB-435
# [23] = tested on: ACHN renal
# [24] = tested on: CAKI-1 renal
# [25] = tested on: BT-549 breast
# [26] = tested on: SNB-75 CNS
# [27] = tested on: SK-MEL-5 melanoma
# [28] = tested on: MDA-MB-231 breast
# [29] = tested on: RPMI-8226 leukemia
# [30] = tested on: OVCAR-3 ovarian
# [31] = tested on: CCRF-CEM leukemia
# [32] = tested on: SK-OV-3 ovarian
# [33] = tested on: T-47D breast
# [34] = tested on: TK-10 renal
# [35] = tested on: SNB-19 CNS
# [36] = tested on: DU-145 prostate
# [37] = tested on: HS 578T breast
# [38] = tested on: OVCAR-8 ovarian
# [39] = tested on: SK-MEL-28 melanoma
# [40] = tested on: HCT-15 colon
# [41] = tested on: HL-60(TB) leukemia
# [42] = tested on: HOP-62 NSCLC
# [43] = tested on: K-562 leukemia
# [44] = tested on: KM12 colon
# [45] = tested on: U251 CNS
# [46] = tested on: UO-31 renal
# [47] = tested on: SF-268 CNS
# [48] = tested on: UACC-62 melanoma
# [49] = tested on: A498 renal
# [50] = tested on: HT29 colon
# [51] = tested on: IGROV1 ovarian
# [52] = tested on: SF-295 CNS
# [53] = tested on: A549 NSCLC
# [54] = tested on: SK-MEL-2 melanoma
# [55] = tested on: NCI-H226 lung
# [56] = tested on: MCF7 breast
smiles,measurement,setting,value
Nc1nc(/C=C\c2ccc([N+](=O)[O-])o2)nc(N2CCN(c3ccccc3)CC2)n1,GI50,[1],2610 nM
same,TGI,[1],12.2 µM
same,GI50,[2],3.49 µM
same,TGI,[2],21.2 µM
same,GI50,[3],2880 nM
same,TGI,[3],21.9 µM
same,GI50,[4],7.81 µM
same,TGI,[4],60.6 µM
same,GI50,[5],8.39 µM
same,TGI,[5],> 100 µM
same,GI50,[6],4.01 µM
same,TGI,[6],26.7 µM
same,GI50,[7],2940 nM
same,TGI,[7],41.5 µM
same,GI50,[8],6.86 µM
same,TGI,[8],44.3 µM
same,GI50,[9],3.59 µM
same,TGI,[9],83 µM
same,GI50,[10],4.6 µM
same,TGI,[10],> 100 µM
same,GI50,[11],23.1 µM
same,TGI,[11],> 100 µM
same,GI50,[12],11.5 µM
same,TGI,[12],41.3 µM
same,GI50,[13],11.1 µM
same,TGI,[13],43.9 µM
same,GI50,[14],10.1 µM
same,TGI,[14],25.8 µM
same,GI50,[15],31.5 µM
same,TGI,[15],62.5 µM
same,GI50,[16],19.2 µM
same,TGI,[16],54.8 µM
same,GI50,[17],3.02 µM
same,TGI,[17],9.94 µM
same,GI50,[18],27.2 µM
same,TGI,[18],> 100 µM
same,GI50,[19],5.5 µM
same,TGI,[19],25.8 µM
same,GI50,[20],3.09 µM
same,TGI,[20],> 100 µM
same,GI50,[21],16.7 µM
same,TGI,[21],34 µM
same,GI50,[22],3.98 µM
same,TGI,[22],26 µM
same,GI50,[23],4.45 µM
same,TGI,[23],21.6 µM
same,GI50,[24],3.5 µM
same,TGI,[24],10.8 µM
same,GI50,[25],15.7 µM
same,TGI,[25],> 100 µM
same,GI50,[26],20.9 µM
same,TGI,[26],47 µM
same,GI50,[27],6.14 µM
same,TGI,[27],25.1 µM
same,GI50,[28],3.51 µM
same,TGI,[28],13.3 µM
same,GI50,[29],3.62 µM
same,TGI,[29],> 100 µM
same,GI50,[30],3.96 µM
same,TGI,[30],18.2 µM
same,GI50,[31],8.01 µM
same,TGI,[31],82.3 µM
same,GI50,[32],17.1 µM
same,TGI,[32],44.7 µM
same,GI50,[33],13.5 µM
same,TGI,[33],60 µM
same,GI50,[34],5.77 µM
same,TGI,[34],32 µM
same,GI50,[35],20 µM
same,TGI,[35],83.8 µM
same,GI50,[36],3.9 µM
same,TGI,[36],41.4 µM
same,GI50,[37],25.3 µM
same,TGI,[37],93 µM
same,GI50,[38],25.8 µM
same,TGI,[38],> 100 µM
same,GI50,[39],14.1 µM
same,TGI,[39],40.5 µM
same,GI50,[40],2770 nM
same,TGI,[40],11.9 µM
same,GI50,[41],7.73 µM
same,TGI,[41],61.8 µM
same,GI50,[42],17.5 µM
same,TGI,[42],51.3 µM
same,GI50,[43],4.63 µM
same,TGI,[43],26.7 µM
same,GI50,[44],11.5 µM
same,TGI,[44],62.9 µM
same,GI50,[45],6.06 µM
same,TGI,[45],39.7 µM
same,GI50,[46],13.6 µM
same,TGI,[46],39.8 µM
same,GI50,[47],11.7 µM
same,TGI,[47],> 100 µM
same,GI50,[48],7.36 µM
same,TGI,[48],25.8 µM
same,GI50,[49],21.5 µM
same,TGI,[49],49.4 µM
same,GI50,[50],13.7 µM
same,TGI,[50],55.9 µM
same,GI50,[51],5.31 µM
same,TGI,[51],32.3 µM
same,GI50,[52],22.1 µM
same,TGI,[52],73.8 µM
same,GI50,[53],19.9 µM
same,TGI,[53],86.5 µM
same,GI50,[54],9.91 µM
same,TGI,[54],> 100 µM
same,GI50,[55],17.5 µM
same,TGI,[55],52.8 µM
same,GI50,[56],3.07 µM
same,TGI,[56],29.1 µM

# From PubChem BioAssay (NCI)
